# Experimental data from ChEMBL document CHEMBL5726505, “Heteroaryl compounds as IRAK inhibitors and uses thereof” (2017).
# Target: T1, Interleukin-1 receptor-associated kinase 4 (Homo sapiens, UniProt Q9NWZ3)
# T1 sequence (Q9NWZ3 whole entry): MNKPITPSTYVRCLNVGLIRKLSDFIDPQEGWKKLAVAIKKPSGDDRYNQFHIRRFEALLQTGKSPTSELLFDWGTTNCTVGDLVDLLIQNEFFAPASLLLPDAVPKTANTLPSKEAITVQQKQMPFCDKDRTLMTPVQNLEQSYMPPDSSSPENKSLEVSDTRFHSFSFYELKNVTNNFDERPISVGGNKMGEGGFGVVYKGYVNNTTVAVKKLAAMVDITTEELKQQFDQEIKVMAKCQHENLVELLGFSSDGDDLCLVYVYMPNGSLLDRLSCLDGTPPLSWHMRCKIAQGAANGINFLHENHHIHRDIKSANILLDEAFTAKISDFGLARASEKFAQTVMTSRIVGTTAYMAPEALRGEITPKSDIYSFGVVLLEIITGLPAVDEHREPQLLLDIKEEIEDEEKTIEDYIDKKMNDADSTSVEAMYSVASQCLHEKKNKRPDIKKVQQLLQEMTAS
# Test: Enzymatic Assay: IRAK4 is a human purified recombinant enzyme (His-TEV-[…] ([…]). IRAK4 hydrolyses ATP, autophosphorylates and phosphorylates a Serine/Threonine generic peptidic substrate (STK: 61ST1BLC from CisBio International based in Bagnols/Cèze FR).Measurement of IRAK-4 inhibition was performed in streptavidin coated 384well FlashPlate (PerkinElmer #SMP410A). His-TEV-IRAK4 (20 ng/well), ATP (2 μM, [33P]ATP 0.25 µCi/well), STK1-biotin peptide (300 nM) and compounds in DMSO (range of concentrations from 20 µM to 1 nM) or controls (2% DMSO) were incubated for 3 hours at 30° C. in assay buffer: Hepes pH7.0 50 mM, Fatty acid-free BSA 0.1%, Dithiothreitol DTT 2 mM, MgCl2 10 mM, EGTA 0.5 mM, Tween-20 0.01%, MnCl2 5 mM.
row,IC50 [µM],SMILES
1,< 0.1,Cn1cc(-c2cccc(-c3ncc(-c4cnn(C)c4)c(N[C@H]4CCN(S(C)(=O)=O)C4)n3)c2)cn1
2,< 0.1,Cn1cc(-c2cccc(-c3ncc(-c4ccn(C)n4)c(O[C@@H]4CCC[C@@H](N)[C@@H]4O)n3)c2)cn1
3,< 0.1,Cc1nnc(-c2cnc(-c3cccc(-c4cnn(C)c4)c3)nc2NC2CCN(S(C)(=O)=O)CC2)s1
4,> 5,Cn1cc(-c2cccc(-c3ncc(-c4cnn(C)c4)c(NCC4CCCN(C(=O)OC(C)(C)C)C4)n3)c2)cn1 (centres undefined)
